These results are taken from paper PMC6797481, “Identification of an allosteric binding site on the human glycine transporter, GlyT2, for bioactive lipid analgesics” (eLife, 2019).

One may read the EC50 as the midpoint of the concentration-response curve. A high value points to a need for much substance. As usually defined, the IC50 is the concentration needed to halve the response being measured.

Series [1] addresses T1, GlyT2 R439L mutant (Homo sapiens, UniProt Q9Y345, R439L).
T1 construct: expressed in transfected cells; host or cells: Xenopus laevis oocytes (cRNA injection)
T1 sequence (Q9Y345 1-797 R439L): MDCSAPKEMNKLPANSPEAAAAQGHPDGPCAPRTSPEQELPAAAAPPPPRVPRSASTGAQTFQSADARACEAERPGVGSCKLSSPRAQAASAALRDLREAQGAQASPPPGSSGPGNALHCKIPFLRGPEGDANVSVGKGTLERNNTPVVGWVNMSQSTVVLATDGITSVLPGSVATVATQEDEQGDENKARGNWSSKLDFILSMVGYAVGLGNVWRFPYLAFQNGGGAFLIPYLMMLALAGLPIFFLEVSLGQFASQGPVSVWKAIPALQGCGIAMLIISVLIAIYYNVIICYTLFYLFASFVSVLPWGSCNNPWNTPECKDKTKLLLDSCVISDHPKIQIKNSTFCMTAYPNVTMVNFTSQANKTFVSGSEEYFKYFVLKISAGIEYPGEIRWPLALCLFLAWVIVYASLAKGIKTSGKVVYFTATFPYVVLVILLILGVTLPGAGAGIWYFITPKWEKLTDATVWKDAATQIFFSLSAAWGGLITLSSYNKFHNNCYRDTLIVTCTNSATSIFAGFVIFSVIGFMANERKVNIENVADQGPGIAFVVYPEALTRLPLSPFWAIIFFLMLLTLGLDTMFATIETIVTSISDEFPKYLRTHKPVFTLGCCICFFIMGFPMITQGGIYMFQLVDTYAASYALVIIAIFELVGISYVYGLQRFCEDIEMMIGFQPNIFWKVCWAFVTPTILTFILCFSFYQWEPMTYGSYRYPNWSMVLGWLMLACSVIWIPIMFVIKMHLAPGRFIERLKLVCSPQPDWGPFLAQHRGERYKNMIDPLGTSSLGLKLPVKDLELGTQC
In words: Glycine transport currents, two electrode voltage clamp, oocytes expressing GlyT2 R439L. The series is classed as cell-based. As for the experimental part: Glycine was first applied to establish maximal transport current.
Compounds were tested for inhibition of glycine transport on Xenopus laevis oocytes expressing mutant GlyT1 and GlyT2 transporters. n values are in brackets, with measurements taken from at least 2 batches of oocytes.
In general terms: Two-electrode voltage clamp is typically applied to oocytes expressing channels or transporters.

For series [2], the system named is GlyT2 F428A, V432A, Y550L, P561S, W563L and L569F mutants. In words: Screen of GlyT2 point mutants for inhibition by 1 µM oleoyl L-carnitine. The series is classed as cell-based, human. The note with it: range over F428A. An excerpt:
The binding site for the allosteric serotonin reuptake inhibitor, (S)-citalopram, lies in the extracellular facing vestibule of SERT, formed by residues from TM1b, TM6a, TM10, and TM11 ([Coleman et al., 2016]). To determine if bioactive lipids inhibit GlyT2 by binding to this ‘vestibule allosteric site,’ corresponding residues in GlyT2 were mutated to remove potential interactions. OLCarn contains a bulky, zwitterionic head group conjugated to an oleoyl lipid tail, and was used as a screen to test mutant transporters for sensitivity to inhibition. None of the transporters containing mutations in the vestibule allosteric site display any change in inhibition compared to WT (Figure 1a). […] Mutations to GlyT2 residues were made either to resemble GlyT1, or to remove potential interactions with bioactive lipids but not disrupt the overall transport activity, often using substitutions present in the bacterial homologue, LeuT.
Figure 1. Defining the bioactive lipid binding site. (a) Inhibition of GlyT2 by 1 µM oleoyl L-carnitine. Transporters were WT or with mutations to the vestibule allosteric site (VAS) or adjacent to EL4. The reduced glycine transport currents were normalised to the current elicited by glycine alone. Data represented are means ± SEM with ****p<0.001 following a one way ANOVA test. […]

Details of series [3]: method as in Mostyn et al., 2019. The note with it: ref Mostyn et al., 2019; cited from earlier work.

In series [1] (glycine transport, GlyT2 R439L (TM5)), `NCC(=O)O` [Glycine] showed an EC50 of 23 ± 4 µM.
Take `CCCCCCCC/C=C\CCCCCCCC(=O)O[C@H](CC(=O)[O-])C[N+](C)(C)C` [oleoyl L-Carnitine, reference compound]: the “inhibition of glycine transport current” value in series [2] was 14.9–29.0%.
As to `CCCCCCCC/C=C\CCCCCCCC(=O)N[C@@H](Cc1c[nH]c2ccccc12)C(=O)O` [oleoyl l-Tryptophan], half-maximal inhibition in series [1] (GlyT2 R439L, mean (95% CI)) (IC50) required 0.109 µM. Besides, in series [1] (GlyT2 R439L, mean ± SEM), the “% Max. inhibition” value is 75.3 ± 4.2 (p=0.1040) %.
Consider oleoyl d-Lysine, for which, in series [3], the “blood brain barrier permeability” value is listed as “blood brain barrier permeable”.
